Assay results from patent publication US20220235065A1 (Epizyme, Inc., priority 2016, published 2022).

What was measured:
EHMT1 = molecular target: T1, EHMT1 (Homo sapiens, UniProt Q9H9B1); experiment: EHMT1 PEP (EHMT1 peptide enzyme assay); assay type: biochemical; conditions: peptide substrate enzyme assay
T1 sequence (Q9H9B1 1-1298): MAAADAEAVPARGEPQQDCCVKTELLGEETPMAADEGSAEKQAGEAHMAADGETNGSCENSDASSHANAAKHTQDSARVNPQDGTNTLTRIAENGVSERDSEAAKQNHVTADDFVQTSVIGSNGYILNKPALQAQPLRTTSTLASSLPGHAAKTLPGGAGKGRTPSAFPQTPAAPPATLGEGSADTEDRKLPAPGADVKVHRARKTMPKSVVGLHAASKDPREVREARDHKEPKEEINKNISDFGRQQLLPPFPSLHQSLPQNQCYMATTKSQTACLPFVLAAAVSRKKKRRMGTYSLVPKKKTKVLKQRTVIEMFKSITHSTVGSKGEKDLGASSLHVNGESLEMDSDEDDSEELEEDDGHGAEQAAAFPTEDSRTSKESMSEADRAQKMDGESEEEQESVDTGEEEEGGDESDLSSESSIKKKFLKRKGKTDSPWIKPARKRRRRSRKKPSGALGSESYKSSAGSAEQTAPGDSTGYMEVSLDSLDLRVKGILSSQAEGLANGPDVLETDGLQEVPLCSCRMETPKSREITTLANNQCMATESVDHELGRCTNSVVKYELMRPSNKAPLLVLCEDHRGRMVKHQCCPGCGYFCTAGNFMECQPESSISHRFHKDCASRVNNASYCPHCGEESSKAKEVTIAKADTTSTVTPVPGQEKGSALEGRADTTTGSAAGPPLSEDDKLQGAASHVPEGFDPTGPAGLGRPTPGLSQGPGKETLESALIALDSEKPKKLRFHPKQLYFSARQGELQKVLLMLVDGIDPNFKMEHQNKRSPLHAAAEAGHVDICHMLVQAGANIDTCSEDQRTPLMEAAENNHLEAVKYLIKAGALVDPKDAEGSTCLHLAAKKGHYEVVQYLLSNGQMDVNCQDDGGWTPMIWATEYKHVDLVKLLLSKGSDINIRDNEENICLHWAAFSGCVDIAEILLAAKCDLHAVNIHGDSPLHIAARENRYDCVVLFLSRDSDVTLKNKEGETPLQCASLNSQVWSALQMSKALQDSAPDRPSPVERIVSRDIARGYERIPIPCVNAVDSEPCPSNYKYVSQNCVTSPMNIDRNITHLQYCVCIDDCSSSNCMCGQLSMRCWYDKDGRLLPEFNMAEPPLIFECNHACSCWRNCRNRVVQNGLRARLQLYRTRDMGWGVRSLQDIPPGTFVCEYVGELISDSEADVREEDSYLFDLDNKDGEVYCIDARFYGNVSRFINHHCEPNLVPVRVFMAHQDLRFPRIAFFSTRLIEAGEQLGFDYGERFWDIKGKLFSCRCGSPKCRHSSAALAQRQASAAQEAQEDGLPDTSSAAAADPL

[1] = molecular target: T2, recombinant purified human EHMT2 913-1193 (Homo sapiens, UniProt Q96KQ7); experiment: EHMT2 enzyme assay on histone peptide substrate (3H-SAM Flashplate); assay type: biochemical; conditions: read-out: EHMT2 PEP (IC50 μM)
T2 construct: Recombinant purified human EHMT2 913-1193 (55 μM) synthesized by Viva was used for all experiments; purchased Viva
T2 sequence (Q96KQ7 913-1193): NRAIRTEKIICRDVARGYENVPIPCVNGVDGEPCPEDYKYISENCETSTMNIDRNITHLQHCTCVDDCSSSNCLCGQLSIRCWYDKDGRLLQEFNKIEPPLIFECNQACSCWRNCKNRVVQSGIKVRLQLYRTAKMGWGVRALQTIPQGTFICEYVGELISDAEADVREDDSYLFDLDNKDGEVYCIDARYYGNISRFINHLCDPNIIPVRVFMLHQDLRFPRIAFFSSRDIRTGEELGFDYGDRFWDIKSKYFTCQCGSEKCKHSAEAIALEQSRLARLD
Experimental: Recombinant purified human EHMT2 913-1193 (55 μM) synthesized by Viva was used for all experiments. Biotinylated histone peptides were synthesized by Biopeptide and HPLC-purified to >95% purity. Streptavidin Flashplates and seals were purchased from PerkinElmer and 384 Well V-bottom Polypropylene Plates were from Greiner. ^3H-labeled S-adenosylmethionine (3H-SAM) was obtained from American Radiolabeled Chemicals with a specific activity of 80 Ci/mmol. Unlabeled SAM and S-adenosylhomocysteine (SAH) were obtained from American Radiolabeled Chemicals and Sigma-Aldrich respectively. Flashplates were washed in a Biotek ELx-405 with 0.1% Tween. 384-well Flashplates and 96-well filter binding plates were read on a TopCount microplate reader (PerkinElmer). Compound serial dilutions were performed on a Freedom EVO (Tecan) and spotted into assay plates using a Thermo Scientific Matrix PlateMate (Thermo Scientific). Reagent cocktails were added by Multidrop Combi (Thermo Scientific).
General Procedure for EHMT2 Enzyme Assay on Histone Peptide Substrate.
10-point curves of test compounds were made on a Freedom EVO (Tecan) using serial 3-fold dilutions in DMSO, beginning at 2.5 mM (final top concentration of compound was 50 μM and the DMSO was 2%). A 1 μL aliquot of the inhibitor dilution series was spotted in a polypropylene 384-well V-bottom plate (Greiner) using a Thermo Scientific Matrix PlateMate (Thermo Scientific). The 100% inhibition control consisted of 1 mM final concentration of the product inhibitor S-adenosylhomocysteine (SAH, Sigma-Aldrich). Compounds were incubated for 30 minutes with 40 μL per well of 0.031 nM EHMT2 (recombinant purified human EHMT2 913-1193, Viva) in 1× assay buffer (20 mM Bicine [pH 7.5], 0.002% Tween 20, 0.005% Bovine Skin Gelatin and 1 mM TCEP). 10 μL per well of substrate mix comprising assay buffer, ^3H-SAM (3H-labeled S-adenosylmethionine, American Radiolabeled Chemicals, specific activity of 80 Ci/mmol), unlabeled SAM (American Radiolabeled Chemicals), and peptide representing histone H3 residues 1-15 containing C-terminal biotin (appended to a C-terminal amide-capped lysine, synthesized by Biopeptide and HPLC-purified to greater than 95% purity) were added to initiate the reaction (both substrates were present in the final reaction mixture at their respective Km values, an assay format referred to as “balanced conditions”). Reactions were incubated for 60 minutes at room temperature and quenched with 10 μL per well of 400 μM unlabeled SAM, then transferred to a 384-well streptavidin Flashplate (PerkinElmer) and washed in a Biotek ELx-405 well washer with 0.1% Tween after 60 minutes. 384-well Flashplates were read on a TopCount microplate reader (PerkinElmer).
IC50 curves were generated using triplicate wells per concentration of compound. The IC50 is the concentration of compound at which measured methylation is inhibited by 50% as interpolated from the dose response curves. IC50 values were calculated using a non-linear regression (variable slope-four parameter fit model) with by the following formula
where Top is fixed at 100% and Bottom is fixed to 0%, [I]=concentration of inhibitor, IC50=half maximal inhibitory concentration and n=Hill Slope.

Structure (SMILES)	IC50 (EHMT1)	IC50 [1]
CNc1cc(C)nc(Nc2ccc(Cl)c(C(=O)Nc3ncco3)c2)n1 [Compound 249]	0.1 to 1 µM	
CNc1cc(C)nc(Nc2ccc(C)c(C(=O)Nc3cc(C#N)ccn3)c2)n1 [Compound 303]		1 to 10 µM
CNCc1cnn(-c2cc(Nc3nc(C)cc(NC)n3)ccc2C#N)c1 [Compound 332]	< 0.1 µM	< 0.1 µM
CNc1cc(C)nc(Nc2ccc(OC)c(-n3cc([C@@H]4CCCN4)cn3)c2)n1 [Compound 333]	< 0.1 µM	< 0.1 µM
CNc1cc(C)nc(Nc2ccc(OC)c(-n3cc([C@H]4CCCN4)cn3)c2)n1 [Compound 334]	< 0.1 µM	< 0.1 µM
